ChEMBL document CHEMBL1143663, “Brucella suis histidinol dehydrogenase: synthesis and inhibition studies of a series of substituted benzylic ketones derived from histidine” (Bioorg Med Chem, 2007)

B1: Histidinol dehydrogenase (Brucella suis biovar 1 (strain 1330)), Q8G2R2 (protein)
chain: MVTTLRQTDPDFEQKFAAFLSGKREVSEDVDRAVREIVDRVRREGDSALLDYSRRFDRIDLEKTGIAVTEAEIDAAFDAAPASTVEALKLARDRIEKHHARQLPKDDRYTDALGVELGSRWTAIEAVGLYVPGGTASYPSSVLMNAMPAKVAGVDRIVMVVPAPDGNLNPLVLVAARLAGVSEIYRVGGAQAIAALAYGTETIRPVAKIVGPGNAYVAAAKRIVFGTVGIDMIAGPSEVLIVADKDNNPDWIAADLLAQAEHDTAAQSILMTNDEAFAHAVEEAVERQLHTLARTETASASWRDFGAVILVKDFEDAIPLANRIAAEHLEIAVADAEAFVPRIRNAGSIFIGGYTPEVIGDYVGGCNHVLPTARSARFSSGLSVLDYMKRTSLLKLGSEQLRALGPAAIEIARAEGLDAHAQSVAIRLNL

Assays:
Histidinol dehydrogenase = target: T1, Histidinol dehydrogenase (Brucella suis biovar 1 (strain 1330), UniProt Q8G2R2); assay: Inhibition of Brucella suis histidinol dehydrogenase
T1 sequence (Q8G2R2 whole entry): B1 chain

[1] = substrate: N[C@H](CO)Cc1c[nH]cn1; assay: Activity of Brucella suis histidinol dehydrogenase

Molecule | IC50 (Histidinol dehydrogenase) | Km [1]
N[C@@H](Cc1c[nH]cn1)C(=O)Cc1ccccc1 | 40 nM | 
N[C@@H](Cc1c[nH]cn1)C(=O)Cc1ccc2ccccc2c1 | 14.5 nM | 
N[C@@H](Cc1c[nH]cn1)C(=O)Cc1ccc(OCc2ccccc2)cc1 | 3 nM | 
COc1ccc(CC(=O)[C@@H](N)Cc2c[nH]cn2)cc1 | 150 nM | 
N[C@@H](Cc1c[nH]cn1)C(=O)Cc1ccc(F)cc1 | 15 nM | 
N[C@@H](Cc1c[nH]cn1)C(=O)Cc1ccc(Br)cc1 | 6 nM | 
N[C@@H](Cc1c[nH]cn1)C(=O)Cc1ccc2c(c1)OCO2 | 25 nM | 
N[C@@H](Cc1c[nH]cn1)C(=O)Cc1ccc(Cl)cc1 | 12 nM | 
N[C@@H](Cc1c[nH]cn1)C(=O)Cc1ccc(-c2ccccc2)cc1 | 12.5 nM | 
Cc1ccc(CC(=O)[C@@H](N)Cc2c[nH]cn2)cc1 | 15 nM | 
N[C@@H](Cc1c[nH]cn1)C(=O)Cc1ccc(F)cc1F | 10 nM | 
N[C@@H](Cc1c[nH]cn1)C(=O)Cc1cccc2ccccc12 | 200 nM | 
N[C@@H](Cc1c[nH]cn1)C(=O)Cc1ccc(Cl)c(Cl)c1 | 20 nM | 
N[C@@H](Cc1c[nH]cn1)C(=O)Cc1c(F)c(F)c(F)c(F)c1F | 70 nM | 
N[C@@H](Cc1c[nH]cn1)C(=O)Cc1ccc(Oc2ccccc2)cc1 | 16 nM | 
B1 |  | 12 µM
